Source: US7511036B2, “Dihydrothiazine prodrugs of thiazolium agents” (Synvista Therapeutics, Inc., priority 2003, dated 2009)
Counter-ions that a name gives are not always drawn.

Tests used:
Rhesus monkeys [1] = details: pilocarpine-stimulated accommodation; see the '112 application; cited from earlier work
dog model for diabetes = assay: Dog model for diabetes, indicators of ventricular elasticity; type: in vivo; details: indicator of ventricular elasticity
Source text: (§1) Cardiovascular risk correlates more closely with the systolic and the pulse pressure than with the diastolic pressure. In diabetic patients, the cardiovascular risk profile of diabetic patients is strongly correlated to duration of diabetes, glycemic control and blood pressure. Structural matrix proteins contribute to the function of vessels and the heart, and changes in the physical behavior of cardiovascular walls are believed to be important determinants of circulatory function. In elderly individuals, the loss of compliance in the aorta leads to systolic hypertension and isolated systolic hypertension, which in turn expands the arterial wall and thereby diminishes the dynamic range of elasticity. […] These studies indicate that prodrugs of such thiazolium compounds should have a similar effect.

Type IV collagen = assay: In situ hybridization studies, Type IV collagen expression; type: in vivo
Source text: as §1

[2] = test system: elderly patients with pulse pressures greater than 60 mm Hg; assay: Phase IIa clinical trial; type: in vivo, human; details: for left ventricular mass: Phase IIa clinical trial, echocardiography
Source text: as §1
Pulse pressure is the difference between systolic and diastolic blood pressure. In a young human, systolic pressure is typically 120 mm Hg and diastolic pressure is 80 mm Hg, resulting in a pulse pressure of 40 mm Hg. With age, in many individuals pulse pressure increases, largely due to the increase in systolic pressure that results from stiff vessel disease. In individuals with pulse pressure greater than 60 mm Hg there is an increased risk of death from cardiovascular morbidities. […] This decrease in pulse pressure was believed to be due primarily to the effect of the agent on lowering the systolic blood pressure.
When the heart pumps blood into the vascular system, the ability of the arteries to expand helps to push blood through the body. When arteries become stiff, as they do in the natural process of aging, the ability of the arteries to expand is diminished which also has consequences for the heart. The heart has to work harder to pump the blood into the stiff arteries, and it eventually hypertrophies (enlarges in size) to accomplish this. A hypertrophied heart is an inefficient pump, and is one of the disorders that leads to congestive heart failure. […] Such a compound can be provided by administration of an N-formyl thiazine compound, (i.e., 2-hydroxy-5,6-dimethyl-2-phenyl-2,3-dihydro-(1,4)thiazine-4-carbaldehyde) and conversion of the compound under, for example, acidic conditions in the stomach, to the corresponding thiazolium salt. The potential clinical benefit of this is to lessen the effort that the heart must expend to push blood throughout the body. The effect is also believed to contribute to preventing hypertrophy and subsequent inefficiency of the heart, which inefficiency would contribute to congestive heart failure.
Atherosclerosis is a disease that involves deposition of blood lipids in plaque in the arteries throughout the body. In coronary arteries, accumulation of plaque progressively leads to reduced coronary flow, with occlusion of the arteries causing focal death of cardiac tissue (myocardial infarction, heart attack). If the amount of tissue that dies is large enough, death ensues. […] Reducing local deposits of plaque should eventually lessen the risk of myocardial infarction and death due to heart attacks.

Rhesus monkeys [3] = details: drug treated vs. control eye, baseline and pilocarpine-stimulated; see the '112 application; cited from earlier work
[4] = test system: collagen in cardiovascular tissues; assay: Mass of collagen in cardiovascular tissues after treatment; details: in vivo
Source text: as §1

TGFbeta = assay: In situ hybridization studies, TGFbeta expression; type: in vivo
Source text: as §1

[5] = Conversion of dihydrothiazine to thiazolium chloride under acidic conditions; type: physicochemical
Method: The following experiment provides evidence that thiazine structures related to compound la can be converted under acidic conditions to thiazolium structures, and thus can serve as pro-drug forms of thiazolium agents.
Compound Ia (2.48 mmol, 0.620 g) was weighed into a 100 mL round bottom flask equipped with magnetic stir bar. Methanol (40 mL) was added, and the solution was stirred until all solid was dissolved. Aqueous hydrochloric acid was added (1N, 3.968 mmol, 4.0 mL) and the reaction solution stirred at ambient temperature for 48 hours. The methanol was removed in vacuo, and the residue was diluted with 25 mL of distilled water. The aqueous layer was extracted with methyl t-butyl ether (2×20 mL). The aqueous layer was concentrated to dryness in vacuo and the residue was crystallized with acetonitrile, methyl-t-butyl-ether (1:1). The crystals were collected via filtration to give 598 mg (90% yield) of 4,5-dimethyl-3-(2-oxo-2-phenylethyl)-thiazolium chloride. […]
In a 15 mL round bottom flask, stirred with a magnetic stirrer, was charged 36 mg (0.16 mmol) of compound Ib (prepared as described by Thornalley et al., Biochemical Pharmacology, vol. 57,pp 303-308, 1999), 2 mL of 1% hydrochloric acid and 2 mL of Ethyl Acetate. Since there was no reaction as monitored by HPLC, 2 mL of 5N Hydrochloric acid, and 2 mL of methanol was added, and the flask was heated to 35° C. […]

Structure (SMILES) | improvement in accommodation (Rhesus monkeys [1]) | end diastolic pressure (dog model for diabetes) | end diastolic volume (dog model for diabetes) | expression of Type IV collagen (Type IV collagen) | left ventricular mass [2] | left ventricular mass ([2]; listed as 3-[2-phenyl-2-oxoethyl]-4,5-dimethyl-thiazolium chloride salt) | stiffness of arteries (ratio of stroke volume (ml) to pulse pressure (mm Hg)) ([2]; Phase IIa clinical trials) | amount of circulating triglycerides (lipids) ([2]; Phase IIa trial) | pulse pressure ([2]; Phase IIa trial, elderly patients with pulse pressures greater than 60 mm Hg, statistically significant) | improvement in fluid outflow facility (ophthalmologic function) (Rhesus monkeys [3]) | mass of collagen in cardiovascular tissues [4] | expression of TGFbeta (TGFbeta) | conversion to thiazolium under acidic conditions ([5]; 1% hydrochloric acid and ethyl acetate, monitored by HPLC) | time until the conversion to thiazolium chloride was finished ([5]; after adding 5N hydrochloric acid and methanol, 35° C., HPLC)
Cc1sc[n+](CC(=O)c2ccccc2)c1C [3-[2-phenyl-2-oxoethyl]-4,5-dimethyl-thiazolium salt] | Improvement in accommodation has been illustrated | returned to a value at about the mid-point between the disease impaired value and the value for control dogs | returned to a value at about the mid-point between the disease impaired value and the value for control dogs | reduces the expression | reduction of left ventricular mass | reduce left ventricular mass | reverse the stiffness of arteries | increased the amount of circulating triglycerides | reduced pulse pressure | improvement has been illustrated | reduction in the mass of collagen | reduces the expression | – | –
O=CN1C=CSC(O)(c2ccccc2)C1 (centres unmarked) [Ib, 2-Hydroxy-2-Phenyl-2,3-Dihydro-(1,4)thiazine-4-carbaldehyde] | – | – | – | – | – | – | – | – | – | – | – | – | no reaction | about 15 h
